Consider 32 molecules from patent US20250122192A1, “5-PYRIMIDINECARBOXAMIDE DERIVATIVES AND METHODS OF USING THE SAME” (Rgenta Therapeutics, Inc., priority 2021, published 2025).

What is called IC50 is the concentration that inhibits the measured activity by half.

Counter-ions that a name gives are not always drawn. Where only a bound is given, the exact number is not on record here.

The test system of one experiment is PMS1. In words: Mini-gene reporter assay-PMS1. The class given is cell-based. Particulars: Homo sapiens, HEK293, PMS1 mini-gene firefly luciferase reporter transiently transfected into HEK293 cells; read-out: PMS1 IC50. Summed up:
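Compound dilution series in duplicate added to transiently transfected HEK293 reporter cells, then incubated; EC50 from Levenberg-Marquardt fit of luminescence. The reporter joins the alternatively skipped exon, its neighbouring introns and exons to firefly luciferase, so induced inclusion gives more signal.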
(A reporter such as luciferase makes a cellular process visible.)
`CCOc1nc(N(CC)C2CCCNCC2)ncc1C(=O)Nc1cn2cc(C)nc2c(C)n1` (centres unmarked) [Compound 249]: the IC50 was greater than 3000 nM.

Consider `CCOc1nc(NC2CCNCC2)ncc1C(=O)Nc1cn2cc(C)nc2c(C)n1` [Compound 251, N-(2,8-dimethylimidazo[1,2-a]pyrazin-6-yl)-4-ethoxy-2-(piperidin-4-ylamino) pyrimidine-5-carboxamide formate], for which the IC50 lay within 1000 to 3000 nM. Take `CCOc1nc(N2CCN(CC)CC2)ncc1C(=O)Nc1cc(F)c2nn(C)cc2c1` [Compound 252, 4-ethoxy-2-(4-ethylpiperazin-1-yl)-N-(7-fluoro-2-methyl-2H-indazol-5-yl)pyrimidine-5-carboxamide hydrochloride]: the concentration for half-maximal inhibition (IC50) was greater than 3000 nM. The same measure, in the same setting: for `COc1nc(N(C)C2CCNCC2)ncc1C(=O)Nc1cn2cc(C)nc2c(C)n1` [Compound 253, N-(2,8-dimethylimidazo[1,2-a]pyrazin-6-yl)-4-methoxy-2-(methyl(piperidin-4-yl)amino) pyrimidine-5-carboxamide formate] the value was less than 500 nM; for `CCOc1nc(N2CC(NC)C2)ncc1C(=O)Nc1cc(F)c2nn(C)cc2c1` [Compound 254, 4-ethoxy-N-(7-fluoro-2-methyl-2H-indazol-5-yl)-2-(3-(methylamino)azetidin-1-yl)pyrimidine-5-carboxamide hydrochloride], greater than 3000 nM; for `CCOc1nc(N2CC(NC)C2)ncc1C(=O)Nc1ccc2nn(C)cc2c1` [Compound 255, 4-ethoxy-N-(2-methyl-2H-indazol-5-yl)-2-(3-(methylamino)azetidin-1-yl)pyrimidine-5-carboxamide], greater than 3000 nM. On the same count and under the same terms, for `CCOc1nc(N(C)C2CCNCC2)ncc1C(=O)Nc1cn2cc(C)nc2cn1` [Compound 256, 4-ethoxy-2-(methyl(piperidin-4-yl)amino)-N-(2-methylimidazo[1,2-a]pyrazin-6-yl)pyrimidine-5-carboxamide] the value was less than 500 nM; for `COc1nc(N(C)C2CCNCC2)ncc1C(=O)Nc1cn2cc(C)nc2cn1` [Compound 257, 4-methoxy-2-(methyl(piperidin-4-yl)amino)-N-(2-methylimidazo[1,2-a]pyrazin-6-yl)pyrimidine-5-carboxamide formate], 500 to 1000 nM. On to `CCOc1nc(N(CC)C2CCNCC2)ncc1C(=O)Nc1cc(F)c2nn(C)cc2c1` [Compound 258, 4-ethoxy-2-(ethyl(piperidin-4-yl)amino)-N-(7-fluoro-2-methyl-2H-indazol-5-yl)pyrimidine-5-carboxamide formate], for which the IC50 is less than 500 nM. `CCOc1nc(N2CCN(C)CC2)ncc1C(=O)Nc1cc(F)c2nn(C)cc2c1` [Compound 259, 4-ethoxy-N-(7-fluoro-2-methyl-2H-indazol-5-yl)-2-(4-methylpiperazin-1-yl)pyrimidine-5-carboxamide formate]: the IC50 lay within 1000 to 3000 nM. On the same count and under the same terms, the result for `CCOc1nc(N2CC[C@H](NC)C2)ncc1C(=O)Nc1cc(F)c2nc(C)cn2c1` [Compound 261, (S)-4-ethoxy-N-(8-fluoro-2-methylimidazo[1,2-a]pyridin-6-yl)-2-(3-(methylamino)pyrrolidin-1-yl)pyrimidine-5-carboxamide formate] reads less than 500 nM; that for `CCOc1nc(N2CC[C@@H](NC)C2)ncc1C(=O)Nc1cc(F)c2nc(C)cn2c1` [Compound 262, (R)-4-ethoxy-N-(8-fluoro-2-methylimidazo[1,2-a]pyridin-6-yl)-2-(3-(methylamino)pyrrolidin-1-yl)pyrimidine-5-carboxamide formate], less than 500 nM. Still for that read-out and setting: for `CCOc1nc(N2CCC(NC)C2)ncc1C(=O)Nc1cc(F)c2nn(C)cc2c1` (centres unmarked) [Compound 263, 4-ethoxy-N-(7-fluoro-2-methyl-2H-indazol-5-yl)-2-(3-(methylamino)pyrrolidin-1-yl)pyrimidine-5-carboxamide formate] the value was less than 500 nM; for `CCOc1nc(N2CCN[C@H](C)C2)ncc1C(=O)Nc1cc(F)c2nn(C)cc2c1` [Compound 264, (R)-4-ethoxy-N-(7-fluoro-2-methyl-2H-indazol-5-yl)-2-(3-methylpiperazin-1-yl)pyrimidine-5-carboxamide formic acid], 1000 to 3000 nM; for `CCOc1nc(N2CCNC(C)(C)C2)ncc1C(=O)Nc1cc(F)c2nn(C)cc2c1` [Compound 265, 2-(3,3-dimethylpiperazin-1-yl)-4-ethoxy-N-(7-fluoro-2-methyl-2H-indazol-5-yl)pyrimidine-5-carboxamide], greater than 3000 nM. As to `COc1nc(NC2CCNCC2)ncc1C(=O)Nc1cn2cc(C)nc2c(C)n1` [Compound 266, N-(2,8-dimethylimidazo[1,2-a]pyrazin-6-yl)-4-methoxy-2-(piperidin-4-ylamino) pyrimidine-5-carboxamide formic acid], the IC50 was in the range of 1000 to 3000 nM. The same measure, in the same setting: the result for `CCOc1nc(N(CC)C2CCNCC2)ncc1C(=O)Nc1cn2cc(C)nc2cn1` [Compound 267, 4-ethoxy-2-(ethyl(piperidin-4-yl)amino)-N-(2-methylimidazo[1,2-a]pyrazin-6-yl)pyrimidine-5-carboxamide formic acid] reads 500 to 1000 nM; that for `CCOc1nc(NC2CCNCC2)ncc1C(=O)Nc1cn2cc(C)nc2cn1` [Compound 268, 4-ethoxy-N-(2-methylimidazo[1,2-a]pyrazin-6-yl)-2-(piperidin-4-ylamino) pyrimidine-5-carboxamide formate], 1000 to 3000 nM; that for `CCOc1nc(N2CCC(N(C)C)C2)ncc1C(=O)Nc1cc(F)c2nc(C)cn2c1` (centres unmarked) [Compound 269, 2-(3-(dimethylamino)pyrrolidin-1-yl)-4-ethoxy-N-(8-fluoro-2-methylimidazo[1,2-a]pyridin-6-yl)pyrimidine-5-carboxamide], 1000 to 3000 nM.

For the molecule `CCOc1nc(N2CCC(NC)C2)ncc1C(=O)Nc1ccc2nn(C)cc2c1` (centres unmarked) [Compound 270, 4-ethoxy-N-(2-methyl-2H-indazol-5-yl)-2-(3-(methylamino)pyrrolidin-1-yl)pyrimidine-5-carboxamide hydrochloride], the IC50 was less than 500 nM.

For `COc1nc(NC2CCNCC2)ncc1C(=O)Nc1cn2cc(C)nc2cn1` [Compound 271, 4-methoxy-N-(2-methylimidazo[1,2-a]pyrazin-6-yl)-2-(piperidin-4-ylamino) pyrimidine-5-carboxamide 2,2,2-trifluoroacetate], the IC50 was greater than 3000 nM. The same measure, in the same setting: the result for `CCOc1nc(N(CC)C2CCNCC2)ncc1C(=O)Nc1ccc2nn(C)cc2c1` [Compound 272, 4-ethoxy-2-(ethyl(piperidin-4-yl)amino)-N-(2-methyl-2H-indazol-5-yl)pyrimidine-5-carboxamide formate] reads 1000 to 3000 nM; that for `CCOc1nc(N2CCNCC2)ncc1C(=O)Nc1cc(OC)c2nn(C)cc2c1` [Compound 273, 4-ethoxy-N-(7-methoxy-2-methyl-2H-indazol-5-yl)-2-(piperazin-1-yl)pyrimidine-5-carboxamide formate], 1000 to 3000 nM.

Consider `CCOc1nc(N2CCC(NC)C2)ncc1C(=O)Nc1ccc2nc(C)cn2c1` (centres unmarked) [Compound 274, 4-ethoxy-2-(3-(methylamino)pyrrolidin-1-yl)-N-(2-methylimidazo[1,2-a]pyridin-6-yl)pyrimidine-5-carboxamide], for which the IC50 was greater than 3000 nM. With `CCOc1nc(N(C)C2CCNCC2)ncc1C(=O)Nc1cc(F)c2nn(C)cc2c1` [Compound 275, 4-ethoxy-N-(7-fluoro-2-methyl-2H-indazol-5-yl)-2-(methyl(piperidin-4-yl)amino) pyrimidine-5-carboxamide formate], the IC50 is less than 500 nM. As to `CCOc1nc(N2CCC(NC)C2)ncc1C(=O)Nc1cnc2nn(C)cc2c1` (centres unmarked) [Compound 276, 4-ethoxy-N-(2-methyl-2H-pyrazolo[3,4-b]pyridin-5-yl)-2-(3-(methylamino)pyrrolidin-1-yl)pyrimidine-5-carboxamide formate], the IC50 is greater than 3000 nM. Same read-out and setting: for `CCOc1nc(N2CC[C@H](NC)C2)ncc1C(=O)Nc1cc(F)c2nn(C)cc2c1` [Compound 277, (S)-4-ethoxy-N-(7-fluoro-2-methyl-2H-indazol-5-yl)-2-(3-(methylamino)pyrrolidin-1-yl)pyrimidine-5-carboxamide 4-methylbenzenesulfinate] the value was less than 500 nM; for `CCOc1nc(N2CCC(NC)C2)ncc1C(=O)Nc1cc(OC)c2nn(C)cc2c1` (centres unmarked) [Compound 278, 4-ethoxy-N-(7-methoxy-2-methyl-2H-indazol-5-yl)-2-(3-(methylamino)pyrrolidin-1-yl)pyrimidine-5-carboxamide formate], less than 500 nM.

Regarding `CCOc1nc(N2CCN[C@@H](C)C2)ncc1C(=O)Nc1cc(F)c2nn(C)cc2c1` [Compound 279, (S)-4-ethoxy-N-(7-fluoro-2-methyl-2H-indazol-5-yl)-2-(3-methylpiperazin-1-yl)pyrimidine-5-carboxamide formate], the IC50 is less than 500 nM.

For the molecule `CCOc1nc(N2C[C@@H](C)N[C@@H](C)C2)ncc1C(=O)Nc1cc(F)c2nn(C)cc2c1` [Compound 280, 2-((3R,5S)-3,5-dimethylpiperazin-1-yl)-4-ethoxy-N-(7-fluoro-2-methyl-2H-indazol-5-yl)pyrimidine-5-carboxamide 4-methylbenzenesulfonate], the IC50 fell in the range of 1000 to 3000 nM.

The experiment is the same for the next values; noted with them: Homo sapiens, HEK293, read-out: PMS1 IC50 (nM).
On to `CCOc1nc(N(CC)C2CCNCC2)ncc1C(=O)Nc1cc(OC)c2nc(C)cn2c1` [Compound 260, 4-ethoxy-2-(ethyl(piperidin-4-yl)amino)-N-(8-methoxy-2-methylimidazo[1,2-a]pyridin-6-yl)pyrimidine-5-carboxamide formate], for which the IC50 is less than 500 nM.

The same experiment, now with this note: Homo sapiens; at 5 μM; PMS1 mini-gene firefly luciferase reporter in HEK293 cells; read-out: PMS1% Effect at 5 μM.
For `COc1nc(N(C)C2CCNCC2)ncc1C(=O)Nc1cc(F)c2nn(C)cc2c1` [Compound 281, N-(7-fluoro-2-methyl-2H-indazol-5-yl)-4-methoxy-2-(methyl(piperidin-4-yl)amino) pyrimidine-5-carboxamide formate], the activation at 5 µM is greater than 75%.
